From US5037830A, “Novel thiouracyl derivatives, pharmaceutical compositions containing them and process for preparing same” (Richter Gedeon Vegyeszeti Gyar RT, priority 1989, dated 1991)

Tests used:
[1] = system: pentagastrin-induced gastric acid secretion; assay: Inhibition of the pentagastrin-induced gastric acid secretion in dogs; assay type: in vivo, Beagle dogs
Description: (§1) After being starved for 24 hours, Beagle dogs of both sexes weighing 6.3 to 11.9 kg were anaesthetized with sodium pentobarbital (30 mg/kg i.v.). The trachea and femoral veins on both sides were cannulated. After laparotomy the pylorus was ligated, a glass cannula was placed into the anterior side of the stomach and fixed by a purse string suture to the stomach wall, abdominal wall and abdominal skin. A rubber probe was introduced to the stomach through the mouth. The animal thus prepared was put onto a Pavlov's frame. The steady sleep was ensured by the infusion of sodium pentobarbital (5 mg/kg/hour). The stomach was washed with lukewarm water and emptied. The secretion-inducing agents (histamine, pentagastrin, carbachol) were administered in a volume of 12 ml/hour for 2 hours in the following doses:
(§2) After 2 hours the infusion was stopped, the volume of the gastric juice produced was measured and its acid content was determined by titration with 0.1N NaOH by using Topfer's indicator. The compound of Example 1 was administered in a 25 mg/kg i.p. dose to the animals by 30 minutes before starting the infusion.

[2] = system: carbachol-induced gastric acid secretion; assay: Inhibition of the carbachol-induced gastric acid secretion in dogs; assay type: in vivo, Beagle dogs
Description: as §1, §2

[3] = system: histamine-induced gastric acid secretion; assay: Inhibition of the histamine-induced gastric acid secretion in dogs; assay type: in vivo, Beagle dogs
Description: as §1, §2

[4] = system: necrosis induced by ethanol containing hydrochloric acid; assay: Cytoprotective effect (modified Robert's test); assay type: in vivo; conditions: for Bleedings, change: vs control; for ED50: po, cytoprotection
Description: The modified Robert's test [Gastroenterology 17, 761 (1979)] was used. The necrotizing agent (100 ml of abs. ethanol containing 2 ml of concentrated hydrochloric acid) was orally administered in a volume of 0.5 ml/100 g by 30 minutes after giving the compound to be tested. (12 animals were used for each dose.) After 1 hour the animals were killed by ether and the bleedings on the glandular part of their stomach were evaluated.

[5] = 25 mg/kg i.p. + Pentagastrin 0.03 mg/kg/hr
[6] = 25 mg/kg i.p. + Carbachol 0.02 mg/kg/hr
[7] = 25 mg/kg i.p. + Histamine 0.1 mg/kg/hr

## Cc1cc(=O)[nH]c(SCc2ccccc2N(C)C)n1 [Example 1, 2-(2-dimethylaminobenzyl)thio-6-methyl-4(3H)-pyrimidinone]
[1]; [5]
  Gastric acid volume: 1.43 ± 0.77 ml/kg/2 hr
  Gastric acid, change: -76%
  Gastric juice volume: 2.90 ± 0.48 ml/kg/2 hr
  Gastric juice, change: -54%
[1]; dogs compared with rats, pentagastrin
  inhibition of gastric acid secretion, in words: with the same efficiency in dogs as in rats
[2]; [6]
  Gastric acid volume: 1.84 ± 0.74 ml/kg/2 hr
  Gastric acid, change: -80%
  Gastric juice volume: 2.55 ± 0.79 ml/kg/2 hr
  Gastric juice, change: -69%
[2]; dogs compared with rats, carbachol
  inhibition of gastric acid secretion, in words: with the same efficiency in dogs as in rats
[3]; [7]
  Gastric acid volume: 3.90 ml/kg/2 hr
  Gastric acid, change: -75%
  Gastric juice volume: 3.85 ml/kg/2 hr
  Gastric juice, change: -69%
[3]; dogs compared with rats, histamine
  inhibition of gastric acid secretion, in words: with the same efficiency in dogs as in rats
[4]; 10 mg/kg p.o.
  Bleedings, treated: 62.0 mm
  Bleedings, change: -38.7%
[4]; 20 mg/kg p.o.
  Bleedings, treated: 42.1 mm
  Bleedings, change: -56.9%
[4]; 40 mg/kg p.o.
  Bleedings, treated: 10.9 mm
  Bleedings, change: -89.6%
[4]
  ED50: 14.5 mg/kg

## CN(C)c1ccccc1C[S+]([O-])c1nc2ccccc2[nH]1 (centres unmarked) [NC-1300, 2-[(2-dimethylaminobenzyl)sulfinyl]-1H-benzimidazole, reference compound]
[4]; 5 mg/kg p.o.
  Bleedings, treated: 84.4 mm
  Bleedings, change: -21.7%
[4]; 10 mg/kg p.o.
  Bleedings, treated: 42.25 mm
  Bleedings, change: -60.8%
[4]; 20 mg/kg p.o.
  Bleedings, treated: 11.65 mm
  Bleedings, change: -86.0%
[4]
  ED50: 8.6 mg/kg
